Results published in PubChem BioAssay (NCI).
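Compound exposure: 48 hours, 5 concentrations, 96-well plates. Here, GI50 denotes the concentration required for 50% inhibition of growth. TGI: total growth inhibition.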

Tests used:
Assay in all cases: NCI-60 cell line screen, 48 h
[1] = test system: ACHN renal
[2] = test system: SK-MEL-5 melanoma
[3] = test system: RXF 393 renal
[4] = test system: TK-10 renal
[5] = test system: PC-3 prostate
[6] = test system: HOP-62 NSCLC
[7] = test system: KM12 colon
[8] = test system: COLO 205 colon
[9] = test system: M14 melanoma
[10] = test system: UO-31 renal
[11] = test system: NCI-H460 lung
[12] = test system: SR leukemia
[13] = test system: MDA-MB-435
[14] = test system: CCRF-CEM leukemia
[15] = test system: A498 renal
[16] = test system: SNB-19 CNS
[17] = test system: NCI-H522 lung
[18] = test system: SN12C renal
[19] = test system: RPMI-8226 leukemia
[20] = test system: OVCAR-5 ovarian
[21] = test system: LOX IMVI melanoma
[22] = test system: UACC-62 melanoma
[23] = test system: NCI-H226 lung
[24] = test system: SK-MEL-2 melanoma
[25] = test system: NCI/ADR-RES ovarian
[26] = test system: SF-268 CNS
[27] = test system: SF-295 CNS
[28] = test system: MALME-3M melanoma
[29] = test system: SNB-75 CNS
[30] = test system: HS 578T breast
[31] = test system: SF-539 CNS
[32] = test system: HCC-2998 colon
[33] = test system: HCT-116 colon
[34] = test system: T-47D breast
[35] = test system: SK-OV-3 ovarian
[36] = test system: HOP-92 NSCLC
[37] = test system: MCF7 breast
[38] = test system: MOLT-4 leukemia
[39] = test system: BT-549 breast
[40] = test system: DU-145 prostate
[41] = test system: SK-MEL-28 melanoma
[42] = test system: IGROV1 ovarian
[43] = test system: HT29 colon
[44] = test system: OVCAR-8 ovarian
[45] = test system: A549 NSCLC
[46] = test system: CAKI-1 renal
[47] = test system: 786-0 renal
[48] = test system: SW-620 colon
[49] = test system: NCI-H23 lung
[50] = test system: EKVX NSCLC
[51] = test system: OVCAR-4 ovarian
[52] = test system: MDA-MB-231 breast
[53] = test system: U251 CNS
[54] = test system: HL-60(TB) leukemia
[55] = test system: UACC-257 melanoma
[56] = test system: HCT-15 colon

`CCCCCc1ccc(S(=O)(=O)Nc2cc(-c3csc(NC(=O)CN4CCN(C)CC4)n3)ccc2OC)cc1` gave a GI50 [1] of 957 nM, a TGI [1] of 1980 nM and a GI50 [2] of 892 nM. For the same molecule, the TGI [2] was 1610 nM, the GI50 [3] was 717 nM and the TGI [3] was 1500 nM. The GI50 [4] was 1410 nM, the TGI [4] was 5100 nM and the GI50 [5] was 1800 nM. The TGI [5] was 7420 nM, the GI50 [6] was 915 nM and the TGI [6] was 1860 nM. It also gave a GI50 [7] of 1210 nM, a TGI [7] of 2920 nM and a GI50 [8] of 821 nM. It also gave a TGI [8] of 1680 nM, a GI50 [9] of 887 nM and a TGI [9] of 1700 nM. The GI50 [10] was 736 nM, the TGI [10] was 1610 nM and the GI50 [11] was 924 nM. It also gave a TGI [11] of 1770 nM, a GI50 [12] of 993 nM and a TGI [12] of 2620 nM. For the same molecule, the GI50 [13] was 878 nM, the TGI [13] was 1640 nM and the GI50 [14] was 1240 nM. The TGI [14] was 3920 nM, the GI50 [15] was 5410 nM and the TGI [15] was 12200 nM. It also gave a GI50 [16] of 1260 nM, a TGI [16] of 3740 nM and a GI50 [17] of 889 nM. The TGI [17] was 1700 nM, the GI50 [18] was 1140 nM and the TGI [18] was 2770 nM. It also gave a GI50 [19] of 925 nM, a TGI [19] of 2160 nM and a GI50 [20] of 1540 nM. It also gave a TGI [20] of 5350 nM, a GI50 [21] of 866 nM and a TGI [21] of 1630 nM. The GI50 [22] was 969 nM, the TGI [22] was 1980 nM and the GI50 [23] was 6890 nM. For the same molecule, the TGI [23] was 17600 nM, the GI50 [24] was 867 nM and the TGI [24] was 1650 nM. For the same molecule, the GI50 [25] was 2370 nM, the TGI [25] was 9890 nM and the GI50 [26] was 898 nM. For the same molecule, the TGI [26] was 1920 nM, the GI50 [27] was 993 nM and the TGI [27] was 2010 nM. For the same molecule, the GI50 [28] was 788 nM, the TGI [28] was 1520 nM and the GI50 [29] was 1070 nM. The TGI [29] was 4470 nM, the GI50 [30] was 919 nM and the TGI [30] was 2190 nM. For the same molecule, the GI50 [31] was 859 nM, the TGI [31] was 1610 nM and the GI50 [32] was 986 nM. The TGI [32] was 1970 nM, the GI50 [33] was 876 nM and the TGI [33] was 1650 nM. The GI50 [34] was 921 nM, the TGI [34] was 2060 nM and the GI50 [35] was 5140 nM. It also gave a TGI [35] of 13000 nM, a GI50 [36] of 857 nM and a TGI [36] of 1960 nM. It also gave a GI50 [37] of 937 nM, a TGI [37] of 1950 nM and a GI50 [38] of 1490 nM. The TGI [38] was 4540 nM, the GI50 [39] was 2520 nM and the TGI [39] was 11200 nM. For the same molecule, the GI50 [40] was 1620 nM, the TGI [40] was 4960 nM and the GI50 [41] was 873 nM. The TGI [41] was 1620 nM, the GI50 [42] was 1190 nM and the TGI [42] was 3510 nM. The GI50 [43] was 871 nM, the TGI [43] was 1680 nM and the GI50 [44] was 1280 nM. The TGI [44] was 3650 nM, the GI50 [45] was 1430 nM and the TGI [45] was 5480 nM. It also gave a GI50 [46] of 869 nM, a TGI [46] of 1970 nM and a GI50 [47] of 884 nM. It also gave a TGI [47] of 1640 nM, a GI50 [48] of 867 nM and a TGI [48] of 1690 nM. The GI50 [49] was 1840 nM, the TGI [49] was 7120 nM and the GI50 [50] was 1920 nM. It also gave a TGI [50] of 9160 nM, a GI50 [51] of 1310 nM and a TGI [51] of 4100 nM. The GI50 [52] was 992 nM, the TGI [52] was 2340 nM and the GI50 [53] was 901 nM. It also gave a TGI [53] of 1910 nM, a GI50 [54] of 1070 nM and a TGI [54] of 2340 nM. The GI50 [55] was 850 nM, the TGI [55] was 1640 nM and the GI50 [56] was 976 nM. It also gave a TGI [56] of 2090 nM.
